Results: US10613104B2, “Assay to determine anticoagulants in blood or blood plasma” (ZAFENA AB, priority 2014, dated 2020)

Test system: prothrombin time (PT) of normal plasma NKP
Assay: Three wet-chemistry Owren PT methods (Simple Simon PT; 20, 10, 5 μL sample in 200 μL reagent) on normal plasma NKP with added anticoagulant
Type: biochemical
Protocol: Experimental work was performed with the commercially available ambient room temperature coagulation instrument, Simple Simon P T Zafena A B, Linköping, Sweden, with functions described in EP 1 636 595 B2. One instrument or reader was used for each PT-method. Alternatively, the same instrument could be used for all PT-methods.
The three instruments were used together standing next to one another on a laboratory bench in thermal equilibrium with the ambient room temperature of the laboratory.
The ambient room temperature in the laboratory where the work was done varied between 21° C. and 26° C.
The PT-reagent was the one delivered together with lot N223M of the Simple Simon PT product, a reagent of Owren-type that thus contains effective amounts of thromboplastin, fibrinogen and FV (the thromboplastin of rabbit brain origin and the fibrinogen and the FV of bovine blood plasma origin). Other Owren type reagents could also be used.
The reagent was in portions of 200 μL to which sample, citrated blood or citrated blood plasma, was added and mixed. The addition was by an end-to-end plastic capillary mounted at one end of a tubular body with a displacement mechanism in the other end, this to allow convenient mixing of sample and reagent. Such Mixxocaps with 10 μL capillaries are supplied with the Simple Simon PT product. To perform the experiments described, some Mixxocaps were fitted with 20 μL capillaries, or 5 μL capillaries instead of the 10 μL capillaries with which they were supplied by the manufacturer.
The ratios between the volume of blood or blood plasma to the volume of liquid reagent used in the experiments were 1:11, 1:21 and 1:41. Other ratios lying within the range of 1:5 and 1:100 or within the range of 1:2 and 1:200 could be used.
Anticoagulated normal plasma was the NKP product GHI-163 lot 10188, MediRox AB, Nyköping, Sweden.
It was further relevant that all three PT-methods were calibrated, according to the invention, to show INR 1.000 for unadulterated NKP, and INR 1.357 for the NKP 1:2. All primary INR values, the results that appeared on the instrument screens (one instrument or reader was used for each PT-method), were therefore transformed to the corrected/calibrated INRc by the formula A*INRexp(B) where a and b were selected to given NKP and NKP 1:2 their desired values, 1.000 and 1.357, respectively. The INR-value of the NKP 1:2 was calculated by the formula of Lindahl et al for the INR of corresponding to PT-activity of 50% (half of the 100% that equates to INR 1.000). Above the INR calibrated columns (INRc) there is an upper number and a lower number, these are the above mentioned A and B, respectively.
As deemed relevant the upper number is selected to make NKP 1:2 to show INRc 1.357.
Clinical levels of interest range from 50 to 1000 μg/L in blood plasma.
In the selected calibration INR 1.000 and INR 1.357 were assigned to NKP and NKP 1:2, respectively, which was the same relevant calibration as selected in Examples 1 and 3 above.

[1] = apixaban 50 μg/L in NKP plasma, from PT (s)
[2] = apixaban 50 μg/L in NKP plasma, from instrument INR
[3] = apixaban 100 μg/L in NKP plasma
[4] = apixaban 100 μg/L in NKP plasma, from PT (s)
[5] = apixaban 100 μg/L in NKP plasma, from instrument INR
[6] = apixaban 200 μg/L in NKP plasma
[7] = apixaban 200 μg/L in NKP plasma, from PT (s)
[8] = apixaban 200 μg/L in NKP plasma, from instrument INR
[9] = apixaban 300 μg/L in NKP plasma
[10] = apixaban 300 μg/L in NKP plasma, from PT (s)
[11] = apixaban 300 μg/L in NKP plasma, from instrument INR
[12] = apixaban 400 μg/L in NKP plasma
[13] = apixaban 400 μg/L in NKP plasma, from PT (s)
[14] = apixaban 400 μg/L in NKP plasma, from instrument INR
[15] = apixaban 500 μg/L in NKP plasma
[16] = apixaban 500 μg/L in NKP plasma, from PT (s)
[17] = apixaban 500 μg/L in NKP plasma, from instrument INR
[18] = apixaban 600 μg/L in NKP plasma
[19] = apixaban 600 μg/L in NKP plasma, from PT (s)
[20] = apixaban 600 μg/L in NKP plasma, from instrument INR
[21] = apixaban 800 μg/L in NKP plasma
[22] = apixaban 800 μg/L in NKP plasma, from PT (s)
[23] = apixaban 800 μg/L in NKP plasma, from instrument INR
[24] = apixaban 1000 μg/L in NKP plasma
[25] = apixaban 1000 μg/L in NKP plasma, from PT (s)
[26] = apixaban 1000 μg/L in NKP plasma, from instrument INR

COc1ccc(-n2nc(C(N)=O)c3c2C(=O)N(c2ccc(N4CCCCC4=O)cc2)CC3)cc1 [apixaban]
INR 5 μL sample (apixaban 50 μg/L in NKP plasma): 1.12
INR 10 μL sample (apixaban 50 μg/L in NKP plasma): 1.18
INR 20 μL sample (apixaban 50 μg/L in NKP plasma): 1.28
PT (s) 5 μL sample (apixaban 50 μg/L in NKP plasma): 47.7 s
PT (s) 10 μL sample (apixaban 50 μg/L in NKP plasma): 39.1 s
PT (s) 20 μL sample (apixaban 50 μg/L in NKP plasma): 35.5 s
INRc 20 μL sample [1]: 1.23
ΔINRc 10 μL − 5 μL [1]: 0.04
ΔINRc 20 μL − 5 μL [1]: 0.19
INRc 20 μL sample [2]: 1.30
ΔINR 10 μL − 5 μL [2]: 0.07
ΔINR 20 μL − 5 μL [2]: 0.24
INR 5 μL sample [3]: 1.15
INR 10 μL sample [3]: 1.27
INR 20 μL sample [3]: 1.55
PT (s) 5 μL sample [3]: 49.1 s
PT (s) 10 μL sample [3]: 41.5 s
PT (s) 20 μL sample [3]: 39.3 s
INRc 20 μL sample [4]: 1.61
ΔINRc 10 μL − 5 μL [4]: 0.12
ΔINRc 20 μL − 5 μL [4]: 0.53
INRc 10 μL sample [5]: 1.24
INRc 20 μL sample [5]: 1.67
ΔINR 10 μL − 5 μL [5]: 0.15
ΔINR 20 μL − 5 μL [5]: 0.58
INR 5 μL sample [6]: 1.29
INR 10 μL sample [6]: 1.53
INR 20 μL sample [6]: 2.12
PT (s) 5 μL sample [6]: 54.4 s
PT (s) 10 μL sample [6]: 47.9 s
PT (s) 20 μL sample [6]: 46.7 s
INRc 5 μL sample [7]: 1.20
INRc 20 μL sample [7]: 2.53
ΔINRc 10 μL − 5 μL [7]: 0.31
INRc 5 μL sample [8]: 1.22
INRc 10 μL sample [8]: 1.55
INRc 20 μL sample [8]: 2.51
ΔINR 10 μL − 5 μL [8]: 0.34
ΔINR 20 μL − 5 μL [8]: 1.30
INR 5 μL sample [9]: 1.44
INR 10 μL sample [9]: 1.82
INR 20 μL sample [9]: 2.82
PT (s) 5 μL sample [9]: 60.6 s
PT (s) 10 μL sample [9]: 54.6 s
PT (s) 20 μL sample [9]: 54.8 s
INRc 5 μL sample [10]: 1.35
INRc 10 μL sample [10]: 1.88
INRc 20 μL sample [10]: 3.85
ΔINRc 10 μL − 5 μL [10]: 0.53
ΔINRc 20 μL − 5 μL [10]: 2.50
INRc 5 μL sample [11]: 1.35
INRc 10 μL sample [11]: 1.91
INRc 20 μL sample [11]: 3.66
ΔINR 10 μL − 5 μL [11]: 0.56
ΔINR 20 μL − 5 μL [11]: 2.30
INR 5 μL sample [12]: 1.58
INR 20 μL sample [12]: 3.68
PT (s) 5 μL sample [12]: 66.3 s
PT (s) 10 μL sample [12]: 62.3 s
PT (s) 20 μL sample [12]: 63.5 s
INRc 5 μL sample [13]: 1.48
INRc 20 μL sample [13]: 5.66
ΔINRc 10 μL − 5 μL [13]: 0.86
ΔINRc 20 μL − 5 μL [13]: 4.18
INRc 5 μL sample [14]: 1.48
INRc 20 μL sample [14]: 5.18
ΔINR 10 μL − 5 μL [14]: 0.87
ΔINR 20 μL − 5 μL [14]: 3.70
INR 5 μL sample [15]: 1.73
INR 10 μL sample [15]: 2.37
INR 20 μL sample [15]: 4.47
PT (s) 5 μL sample [15]: 72.0 s
PT (s) 10 μL sample [15]: 67.0 s
PT (s) 20 μL sample [15]: 70.8 s
INRc 5 μL sample [16]: 1.62
INRc 10 μL sample [16]: 2.64
INRc 20 μL sample [16]: 7.54
ΔINRc 10 μL − 5 μL [16]: 1.02
ΔINRc 20 μL − 5 μL [16]: 5.92
INRc 5 μL sample [17]: 1.62
INRc 10 μL sample [17]: 2.63
INRc 20 μL sample [17]: 6.69
ΔINR 10 μL − 5 μL [17]: 1.02
ΔINR 20 μL − 5 μL [17]: 5.07
INR 5 μL sample [18]: 1.90
INR 10 μL sample [18]: 2.70
INR 20 μL sample [18]: 5.56
PT (s) 5 μL sample [18]: 78.8 s
PT (s) 10 μL sample [18]: 73.9 s
PT (s) 20 μL sample [18]: 79.9 s
INRc 5 μL sample [19]: 1.78
INRc 10 μL sample [19]: 3.10
INRc 20 μL sample [19]: 10.35
ΔINRc 10 μL − 5 μL [19]: 1.32
ΔINRc 20 μL − 5 μL [19]: 8.57
INRc 5 μL sample [20]: 1.77
INRc 10 μL sample [20]: 3.08
INRc 20 μL sample [20]: 8.91
ΔINR 10 μL − 5 μL [20]: 1.31
ΔINR 20 μL − 5 μL [20]: 7.14
INR 5 μL sample [21]: 2.22
INR 10 μL sample [21]: 3.35
INR 20 μL sample [21]: 7.81
PT (s) 5 μL sample [21]: 91.7 s
PT (s) 10 μL sample [21]: 87.2 s
PT (s) 20 μL sample [21]: 96.9 s
INRc 5 μL sample [22]: 2.09
INRc 20 μL sample [22]: 17.18
ΔINRc 10 μL − 5 μL [22]: 1.99
INRc 5 μL sample [23]: 2.06
INRc 20 μL sample [23]: 13.91
ΔINR 10 μL − 5 μL [23]: 1.94
ΔINR 20 μL − 5 μL [23]: 11.85
INR 5 μL sample [24]: 2.67
INR 20 μL sample [24]: 10.70
PT (s) 5 μL sample [24]: 111.2 s
PT (s) 10 μL sample [24]: 109.3 s
PT (s) 20 μL sample [24]: 117.4 s
INRc 20 μL sample [25]: 28.43
INRo [25]: 0.75
ΔINRc 10 μL − 5 μL [25]: 3.37
ΔINRc 20 μL − 5 μL [25]: 25.85
INRc 20 μL sample [26]: 21.03
INRo [26]: 0.78
ΔINR 10 μL − 5 μL [26]: 3.12
ΔINR 20 μL − 5 μL [26]: 18.56
content at which the INRc-difference (20 μL minus 5 μL) reaches 0.5 (normal plasma NKP, linear part of the graph (FIG. 8, FIG. 2)): about 80 μg/L
